Drawing on US11254686B1 (Corvus Pharmaceuticals, Inc., priority 2017, dated 2022), this text covers IC50 and Ratio for 14 compounds.

A value given as a limit tells only on which side of the number the result lay.

Holding throughout (format): biochemical
In one experiment the target is adenosine A3 receptor (Homo sapiens (Human), UniProt P0DMS8). As to the kind of experiment: Adenosine receptor activity assay (Table 1), A3 cAMP. As for the experimental part: (§1) Table 1. Compounds (e.g., Adenosine Receptor modulators) and activity assay results. The legend is as follows: A=<10 nM; B=10-50 nM; C=50-100 nM; D=100-500; and E=>500 nM. The ratio corresponds to the A2A activity to the A2B activity; or A2A/A2B.

The target in the next experiment is adenosine A2A receptor (Homo sapiens (Human), UniProt P29274). As to the kind of experiment: Adenosine receptor activity assay (Table 1), A2A activity. As to conditions: read-out: Ave A2A cAMP IC50.
The target of another experiment is adenosine A1 receptor (Homo sapiens (Human), UniProt P30542). As to the kind of experiment: Adenosine receptor activity assay (Table 1), A1 cAMP. As for the experimental part: as §1
A further experiment has as its target adenosine A2B receptor (Homo sapiens (Human), UniProt P29275). As to the kind of experiment: Adenosine receptor activity assay (Table 1), A2B activity. As to conditions: for Ratio: A2A activity to the A2B activity, A2A/A2B; for IC50: read-out: Ave A2B cAMP IC50.

Chain of adenosine A2B receptor (P29275 whole entry): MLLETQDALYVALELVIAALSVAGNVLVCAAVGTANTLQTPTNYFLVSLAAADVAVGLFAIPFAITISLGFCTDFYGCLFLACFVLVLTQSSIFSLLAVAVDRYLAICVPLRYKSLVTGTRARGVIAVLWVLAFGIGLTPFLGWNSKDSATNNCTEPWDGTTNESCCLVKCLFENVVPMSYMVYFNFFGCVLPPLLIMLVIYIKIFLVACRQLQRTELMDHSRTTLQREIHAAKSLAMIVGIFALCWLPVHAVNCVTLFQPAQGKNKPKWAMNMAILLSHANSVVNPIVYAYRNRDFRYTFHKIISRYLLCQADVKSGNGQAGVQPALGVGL
Chain of adenosine A1 receptor (P30542 whole entry): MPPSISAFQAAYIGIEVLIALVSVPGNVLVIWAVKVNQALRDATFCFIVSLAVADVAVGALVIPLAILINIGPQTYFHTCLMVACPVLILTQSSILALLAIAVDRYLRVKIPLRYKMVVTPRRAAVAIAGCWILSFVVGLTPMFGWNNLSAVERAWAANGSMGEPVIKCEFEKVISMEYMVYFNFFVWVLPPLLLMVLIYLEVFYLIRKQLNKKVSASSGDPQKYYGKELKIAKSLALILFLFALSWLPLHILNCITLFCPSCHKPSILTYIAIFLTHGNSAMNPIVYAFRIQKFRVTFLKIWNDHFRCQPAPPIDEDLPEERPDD
Chain of adenosine A2A receptor (P29274 whole entry): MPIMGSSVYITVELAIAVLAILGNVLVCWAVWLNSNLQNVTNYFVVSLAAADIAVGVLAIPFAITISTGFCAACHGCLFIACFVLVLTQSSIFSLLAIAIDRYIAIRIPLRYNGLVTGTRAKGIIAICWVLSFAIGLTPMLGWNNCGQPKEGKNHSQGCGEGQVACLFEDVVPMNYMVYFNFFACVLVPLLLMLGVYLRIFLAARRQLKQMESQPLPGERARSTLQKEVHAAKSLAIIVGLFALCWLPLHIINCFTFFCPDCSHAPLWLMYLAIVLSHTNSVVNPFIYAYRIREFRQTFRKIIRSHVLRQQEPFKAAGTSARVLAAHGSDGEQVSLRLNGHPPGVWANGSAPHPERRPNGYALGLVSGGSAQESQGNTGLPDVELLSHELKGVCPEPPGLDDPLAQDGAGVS
Chain of adenosine A3 receptor (P0DMS8 whole entry): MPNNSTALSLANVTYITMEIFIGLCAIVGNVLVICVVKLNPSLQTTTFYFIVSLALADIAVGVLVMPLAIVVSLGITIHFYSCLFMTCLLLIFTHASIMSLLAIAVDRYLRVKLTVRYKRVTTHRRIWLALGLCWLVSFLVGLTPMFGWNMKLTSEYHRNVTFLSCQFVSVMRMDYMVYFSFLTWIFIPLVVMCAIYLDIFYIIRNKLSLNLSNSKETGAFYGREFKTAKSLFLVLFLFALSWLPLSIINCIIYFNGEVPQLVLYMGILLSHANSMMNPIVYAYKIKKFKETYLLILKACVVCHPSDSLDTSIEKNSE

Turning to `Cc1cc2nc(N[C@@H](C)c3cncc(F)c3)nc(C(=O)N3CC(N(C)C(=O)CC(C)(C)C)C3)c2s1` [Example Z508, (S)—N-(1-(2-((1-(5-Fluoropyridin-3-yl)ethyl)amino)-6-methylthieno[3,2-d]pyrimidine-4-carbonyl)azetidin-3-yl)-N,3,3-trimethylbutanamide], the IC50 against adenosine A3 receptor was more than 500 nM; at adenosine A2A receptor it was 10 to 50 nM; against adenosine A1 receptor, more than 500 nM; at adenosine A2B receptor, 10 to 50 nM. For the same compound, the Ratio on adenosine A2B receptor amounted to 1.06.
Consider `CC(=O)N(C)C1CN(C(=O)c2nc(N[C@@H](C)c3cncc(F)c3)nc3cc(C)sc23)C1` [Example Z509, (S)—N-(1-(2-((1-(5-Fluoropyridin-3-yl)ethyl)amino)-6-methylthieno[3,2-d]pyrimidine-4-carbonyl)azetidin-3-yl)-N-methylacetamide], for which the IC50 is more than 500 nM on adenosine A3 receptor, more than 500 nM at adenosine A2A receptor, more than 500 nM at adenosine A1 receptor and less than 10 nM on adenosine A2B receptor. Further, the Ratio on adenosine A2B receptor amounted to 80.91.
On to `CC(C)OC(=O)NC1CN(C(=O)c2nc(N[C@@H](C)c3cncc(F)c3)nc3ccsc23)C1` [Example Z510, Isopropyl (S)-(1-(2-((1-(5-fluoropyridin-3-yl)ethyl)amino)thieno[3,2-d]pyrimidine-4-carbonyl)azetidin-3-yl)carbamate], for which the IC50 at adenosine A3 receptor was more than 500 nM; on adenosine A2A receptor, 10 to 50 nM; at adenosine A1 receptor, more than 500 nM; at adenosine A2B receptor, 10 to 50 nM. In addition, the Ratio at adenosine A2B receptor worked out at 2.03.
Take `Cc1cc2nc(N[C@@H](C)c3cncc(F)c3)nc(C(=O)N3CC(NC(=O)OC(C)C)C3)c2s1` [Example Z511, Isopropyl (S)-(1-(2-((1-(5-fluoropyridin-3-yl)ethyl)amino)-6-methylthieno[3,2-d]pyrimidine-4-carbonyl)azetidin-3-yl)carbamate]: the IC50 is 50 to 100 nM against adenosine A3 receptor, 10 to 50 nM at adenosine A2A receptor, more than 500 nM against adenosine A1 receptor and 10 to 50 nM at adenosine A2B receptor. Further, the Ratio at adenosine A2B receptor is 2.90.
`Cc1cc2nc(N[C@@H](C)c3cncc(F)c3)nc(C(=O)N3CC(NC(=O)CNC(=O)c4ccccc4)C3)c2s1` [Example Z512, (S)—N-(2-((1-(2-((1-(5-Fluoropyridin-3-yl)ethyl)amino)-6-methylthieno[3,2-d]pyrimidine-4-carbonyl)azetidin-3-yl)amino)-2-oxoethyl)benzamide]: the IC50 at adenosine A3 receptor is more than 500 nM; at adenosine A2A receptor, more than 500 nM; at adenosine A1 receptor, more than 500 nM; at adenosine A2B receptor it was 10 to 50 nM. Also, the Ratio at adenosine A2B receptor came to 33.02.
`Cc1cc2nc(N[C@@H](C)c3cncc(F)c3)nc(C(=O)N3CC(NC(=O)C(C)(C)C)C3)c2s1` [Example Z513, (S)—N-(1-(2-((1-(5-Fluoropyridin-3-yl)ethyl)amino)-6-methylthieno[3,2-d]pyrimidine-4-carbonyl)azetidin-3-yl)pivalamide]: the IC50 against adenosine A3 receptor is 10 to 50 nM; at adenosine A2A receptor it was less than 10 nM; on adenosine A1 receptor, 100 to 500 nM; at adenosine A2B receptor it was 10 to 50 nM. In addition, the Ratio on adenosine A2B receptor is given as 0.18.
Take `Cc1cc2nc(N[C@@H](C)c3cccnc3)nc(C(=O)N3CC(CO)C3)c2s1` [Example Z515, (S)-(3-(Hydroxymethyl)azetidin-1-yl)(6-methyl-2-((1-(pyridin-3-yl)ethyl)amino)thieno[3,2-d]pyrimidin-4-yl)methanone]: the IC50 at adenosine A3 receptor was more than 500 nM; at adenosine A2A receptor, more than 500 nM; against adenosine A1 receptor, more than 500 nM; on adenosine A2B receptor, 10 to 50 nM. Moreover, at adenosine A2B receptor, the Ratio was determined as 53.11.
Turning to `COCCC(=O)NC1CN(C(=O)c2nc(N[C@@H](C)c3cncc(F)c3)nc3cc(C)sc23)C1` [Example Z518, (S)—N-(1-(2-((1-(5-Fluoropyridin-3-yl)ethyl)amino)-6-methylthieno[3,2-d]pyrimidine-4-carbonyl)azetidin-3-yl)-3-methoxypropanamide], the IC50 against adenosine A3 receptor was more than 500 nM; on adenosine A2A receptor, 10 to 50 nM; on adenosine A1 receptor it was more than 500 nM; on adenosine A2B receptor, less than 10 nM. Moreover, the Ratio at adenosine A2B receptor was 5.46.
On to `C[C@H](Nc1nc(C(=O)N2CC(NC(=O)C3CCOC3)C2)c2sccc2n1)c1cncc(F)c1` (stereo partly drawn) [Example Z519, N-(1-(2-(((S)-1-(5-Fluoropyridin-3-yl)ethyl)amino)thieno[3,2-d]pyrimidine-4-carbonyl)azetidin-3-yl)tetrahydrofuran-3-carboxamide], for which the half-inhibitory concentration (IC50) against adenosine A3 receptor was more than 500 nM; on adenosine A2A receptor, 10 to 50 nM; at adenosine A1 receptor, more than 500 nM; at adenosine A2B receptor, less than 10 nM. Moreover, the Ratio on adenosine A2B receptor amounted to 3.87.
In the case of `CCNC(=O)C1CCN(C(=O)c2nc(N[C@@H](C)c3cncc(F)c3)nc3ccsc23)C1` (stereo partly drawn) [Example Z520, N-Ethyl-1-(2-(((S)-1-(5-fluoropyridin-3-yl)ethyl)amino)thieno[3,2-d]pyrimidine-4-carbonyl)pyrrolidine-3-carboxamide], the IC50 on adenosine A3 receptor is more than 500 nM; on adenosine A2A receptor, 100 to 500 nM; at adenosine A1 receptor it was more than 500 nM; at adenosine A2B receptor, less than 10 nM. At adenosine A2B receptor, the Ratio is listed as 27.57.
On to `Cc1cc2nc(N[C@@H](C)c3cncc(F)c3)nc(C(=O)N3CC(NC(=O)C4CC4)C3)c2s1` [Example Z522, (S)—N-(1-(2-((1-(5-Fluoropyridin-3-yl)ethyl)amino)-6-methylthieno[3,2-d]pyrimidine-4-carbonyl)azetidin-3-yl)cyclopropanecarboxamide], for which the IC50 against adenosine A3 receptor was 100 to 500 nM; at adenosine A2A receptor, 10 to 50 nM; on adenosine A1 receptor, more than 500 nM; at adenosine A2B receptor, less than 10 nM. Besides, at adenosine A2B receptor, the Ratio stood at 1.58.
The like results for `Cc1cc2nc(N[C@@H](C)c3cncc(F)c3)nc(C(=O)N3CC(NC(=O)C4CCOC4)C3)c2s1` (stereo partly drawn) [Example Z523, N-(1-(2-(((S)-1-(5-Fluoropyridin-3-yl)ethyl)amino)-6-methylthieno[3,2-d]pyrimidine-4-carbonyl)azetidin-3-yl)tetrahydrofuran-3-carboxamide] were, in that order, 100 to 500 nM, 10 to 50 nM, more than 500 nM, less than 10 nM and 1.40.
As to `CC1CCN1C(=O)c1nc(N[C@@H](C)c2cncc(F)c2)nc2ccsc12` (stereo partly drawn) [Example Z524, (2-(((S)-1-(5-Fluoropyridin-3-yl)ethyl)amino)thieno[3,2-d]pyrimidin-4-yl)(2-methylazetidin-1-yl)methanone], the IC50 is more than 500 nM against adenosine A3 receptor, 50 to 100 nM at adenosine A2A receptor, more than 500 nM at adenosine A1 receptor and less than 10 nM on adenosine A2B receptor. The Ratio at adenosine A2B receptor came to 11.94.
Regarding `CC(C)(C)C(=O)N[C@H]1CCN(C(=O)c2nc(NCc3cncc(F)c3)nc3ccsc23)C1` [Example Z526, (S)—N-(1-(2-(((5-Fluoropyridin-3-yl)methyl)amino)thieno[3,2-d]pyrimidine-4-carbonyl)pyrrolidin-3-yl)pivalamide], the IC50 on adenosine A3 receptor was more than 500 nM; at adenosine A2A receptor, 50 to 100 nM; on adenosine A1 receptor it was more than 500 nM; on adenosine A2B receptor, 10 to 50 nM. Moreover, on adenosine A2B receptor, the Ratio came to 4.26.
